Results on four substances are retold here after patent US20250304623A1, “PEPTIDES FOR INTRACELLULAR DELIVERY” (UNIVERSIDADE DE SANTIAGO DE COMPOSTELA, priority 2022, published 2025).

*: point of attachment. NHNH2 = NN*

Common to all, as to format: cell-based
The subject of one test is Hek293 cells. The experiment in a line: RLuc pDNA delivery, robotic library screening, Hek293.
For a further test, the system named is A549 cells. As to the kind of experiment: EGFP mRNA delivery, robotic library screening, A549. The method, then: Cells were seeded in a 96 well plate the day before the experiment at a concentration of 50,000 cell/mL (100 μL/w) in DMEM+10% FBS+1% Gln-Abt. For robotic library screening, the delivery of EGFP-mRNA (from TriLink, fully substituted with 5-methoxyuridine, capped and polyadenylated; TriLink, CleanCap® EGFP mRNA (5moU), ref. L-7201) in six different cell lines was performed. Amphiphilic molecule stock solutions were prepared in DMSO as described above and diluted in DMEM to afford a range of concentrations. The solutions of EGFP-mRNA/amphiphilic molecule complexes were freshly prepared prior to the transfection experiments. 35 μL of the corresponding amphiphile were added to 10 μL of a solution of EGFP-mRNA at 10 ng/μL in DMEM. The mixture was shaken for 30 min at room temperature before the addition to the cells. The cell medium was aspirated, and cells were washed with PBS twice. Cells were covered with 39 μL of DMEM and 11 μL of the complex's solution were added to the cells and incubated for 4 h (final concentration of peptide=2.5, 5 and 10 μM; final concentration of EGFP-mRNA=25 ng/well). After the incubation, the medium was replaced by 100 μL of fresh DMEM supplemented with 10% FBS. The total EGFP fluorescence was quantified after 72 h in a well plate reader. Amphiphile transfection efficiency was compared and normalized to Lipofectamine® MessengerMax efficiency (value of 1 in Tables 1-5 and 7; double underlined numbers). All experiments were done in triplicate.
(§1) Tables 1-7: RLuc (pDNA) or EGFP (mRNA) expression levels were normalized to Lipofectamine reagents (value=1) and expressed as fold-times signal increase. In the case of siRNA, the siRNA treated cells fluorescence was compared with siMOCK control fluorescence, while Cas9-RNP mediated knockout was measured against the fluorescence of untreated cells. In both siRNA and Cas9-RNP, values are expressed as % fluorescence reduction. Amphiphile concentration was 5 μM in all cases. All experiments were performed in triplicate.
Tables 14-19 show the mean (triplicates) fluorescence intensity measured after the transfection of EGFP mRNA by different amphiphiles at different concentrations in a variety of cell lines. Background fluorescence values, accounted by untreated control cells, were subtracted for processing.

The subject of test [1] is Hela cells expressing EGFP. The experiment in a line: Cas9-RNP delivery against EGFP (gene editing, plate reader), HeLa. The method, then: To generate an EGFP expressing HeLa cell line, HeLa cells were transfected with EGFP pDNA (pEGFP-C1, Clontech) and stable transfectants were selected with 400 μg/mL of G-418 (Millipore). Green clones were selected by epifluorescence microscopy and tested for EGFP expression stability through several passages. […] All other EGFP-expressing cell lines were obtained in a similar way from parent non-EGFP-expressing cell lines.
Cells expressing EGFP were seeded in a 96 well plate the day before the experiment at a concentration of 50,000 cell/mL (100 μL/w) in DMEM+10% FBS+1% Gln-Abt. For robotic library screening, the delivery of Cas9-RNP against EGFP (RNP designed to knock-out the gene encoding for the enhanced green fluorescent protein (EGFP)) was performed. For RNP assembly, 9.2 μL of crRNA and 9.2 μL of tracrRNA were mixed in 211.6 μL of Nuclease-Free Duplex Buffer (IDT), incubated for 5 min at 95° C. and slowly cooled at rt (see I. Lostalé-Seijo, et al. Peptide/Cas9 nanostructures for ribonucleoprotein cell membrane transport and gene edition, Chem. Sci., 2017). Cas9 protein was dissolved in DMEM at a final concentration of 4 μM and equal volumes of the RNA complex and Cas9 were mixed and incubated for 5 min at rt. 75 μL of the corresponding amphiphile concentrations were added to 5 μL of RNP at 2 μM. The mixture was shaken for 30 min at room temperature before the addition to the cells. The cell medium was aspirated, and cells were washed twice with PBS. Cells were covered with 30 μL of DMEM and 20 μL of the RNP/amphiphile complexes were added to the cells (final peptide concentrations=2.5, 5 and 10 μM; final Cas9-RNP concentration=50 nM) and incubated for 4 h. After the incubation, the medium was replaced by 100 μL of fresh DMEM supplemented with 10% FBS. The total EGFP fluorescence was quantified after 72 h in a plate reader (FIG. 2, Table 1 (right) and Table 6). All experiments were done in triplicate.
as §1
Tables 26-31 show the mean (triplicates) percentage of gene editing, accounted by GFP fluorescence intensity decrease (% of reduction), measured after the transfection of Cas9-RNP by different amphiphiles at different concentrations in a variety of cell lines. Background values, accounted by untreated control cells, were subtracted for processing.

Take “Ac-RK*LRRK*L-NH2 (Ac-RK(NHNH2)LRRK(NHNH2)L-NH2; not fully specified; printed as Ac-RK*LRRK*L-NH2; also: K*2,K*6: native or modified lysine (ε-amide to a linker)) [Peptide 7.2]”: the “mean luminescent intensity (RLuc pDNA)” value in the test with Hek293 cells (Dodecanal, 10 μM) was 8723 RLU; in the test on Hek293 cells (Dodecanal, 15 μM), 11358 RLU; in the test with Hek293 cells (Myristoleyl, 5 μM) it was 5382 RLU; in the test with Hek293 cells (Myristoleyl, 10 μM), 24464 RLU; in the test with Hek293 cells (Myristoleyl, 15 μM) it was 8475 RLU. Also, the “mean fluorescence intensity (EGFP mRNA)” value in the test with A549 cells (Dodecanal, 2.5 μM) is 428; with A549 cells (Dodecanal, 5 μM), −205; in the test on A549 cells (Dodecanal, 10 μM), −3; with A549 cells (Myristoleyl, 2.5 μM), 1101; in the test on A549 cells (Myristoleyl, 5 μM), 231; in the test on A549 cells (Myristoleyl, 10 μM), 123. Further, the “percentage of gene editing, GFP fluorescence intensity decrease (% of reduction)” value is reported as 6% in test [1] (Dodecanal, 5 μM, Hela cells); −22% in test [1] (Dodecanal, 10 μM, HeLa cells); −26% in test [1] (Dodecanal, 15 μM, Hela cells); −7% in test [1] (Myristoleyl, 5 μM, HeLa cells); −18% in test [1] (Myristoleyl, 10 μM, HeLa cells); −6% in test [1] (Myristoleyl, 15 μM, Hela cells).

For the substance “Ac-RRLK*RLLRRLK*RLK*RRL-NH2 (Ac-RRLK(NHNH2)RLLRRLK(NHNH2)RLK(NHNH2)RRL-NH2; not fully specified; printed as Ac-RRLK*RLLRRLK*RLK*RRL-NH2; also: K*4,K*11,K*14: native or modified lysine (ε-amide to a linker)) [Peptide 17.3]”, the “mean luminescent intensity (RLuc pDNA)” value with Hek293 cells (Dodecanal, 10 μM) was 12692 RLU; with Hek293 cells (Dodecanal, 15 μM), 3248 RLU; in the test on Hek293 cells (Myristoleyl, 5 μM), 158771 RLU; with Hek293 cells (Myristoleyl, 10 μM) it was 4717 RLU; in the test with Hek293 cells (Myristoleyl, 15 μM), −110 RLU; with Hek293 cells (Palmitoleyl, 5 μM) it was 10403 RLU. For the same substance, the “mean luminescent intensity (RLuc pDNA)” value is on record as 1319 RLU in the test with Hek293 cells (Palmitoleyl, 10 μM) and −644 RLU in the test with Hek293 cells (Palmitoleyl, 15 μM). The “mean fluorescence intensity (EGFP mRNA)” value in the test with A549 cells (Myristoleyl, 2.5 μM) is listed as 563; in the test with A549 cells (Myristoleyl, 5 μM), 309; with A549 cells (Petroselinyl, 2.5 μM) it was 791; in the test on A549 cells (Petroselinyl, 5 μM), 440; in the test on A549 cells (Petroselinyl, 10 μM), 274. Moreover, the “percentage of gene editing, GFP fluorescence intensity decrease (% of reduction)” value in test [1] (Dodecanal, 5 μM, Hela cells) came out at 81%; in test [1] (Dodecanal, 10 μM, HeLa cells), 87%; in test [1] (Dodecanal, 15 μM, Hela cells), 78%; in test [1] (Myristoleyl, 5 μM, HeLa cells), 57%; in test [1] (Oleyl, 10 μM, HeLa cells) it was 90%; in test [1] (Oleyl, 15 μM, Hela cells) it was 82%. The “percentage of gene editing, GFP fluorescence intensity decrease (% of reduction)” value in test [1] (Palmitoleyl, 5 μM, HeLa cells) is 35%; in test [1] (Palmitoleyl, 10 μM, HeLa cells), 90%; in test [1] (Palmitoleyl, 15 μM, Hela cells) it was 88%; in test [1] (Petroselinyl, 5 μM, HeLa cells), 48%; in test [1] (Petroselinyl, 15 μM, Hela cells), 87%.

As to “Ac-RRLK*RLLRRLK*RL-NH2 (Ac-RRLK(NHNH2)RLLRRLK(NHNH2)RL-NH2; not fully specified; printed as Ac-RRLK*RLLRRLK*RL-NH2; also: K*4,K*11: native or modified lysine (ε-amide to a linker)) [Peptide 13.2]”, the “mean luminescent intensity (RLuc pDNA)” value in the test with Hek293 cells (Oleyl, 5 μM) is reported as 83689 RLU; in the test with Hek293 cells (Oleyl, 10 μM), 22447 RLU; in the test on Hek293 cells (Oleyl, 15 μM) it was 7233 RLU. Moreover, the “mean fluorescence intensity (EGFP mRNA)” value in the test on A549 cells (Oleyl, 2.5 μM) was determined as 136; with A549 cells (Oleyl, 5 μM) it was 160; in the test with A549 cells (Oleyl, 10 μM), 22. Also, the “percentage of gene editing, GFP fluorescence intensity decrease (% of reduction)” value in test [1] (Oleyl, 5 μM, HeLa cells) is on record as 21%; in test [1] (Oleyl, 10 μM, HeLa cells), 62%.

For the substance “Ac-RHLK*RHK*RRLK*RH-NH2 (Ac-RHLKRHKRRLKRH-NH2; not fully specified (residues 4, 7, 11); printed as Ac-RHLK*RHK*RRLK*RH-NH2; also: linker on K* not given here) [13(3His)]”, the “mean luminescent intensity (RLuc pDNA)” value in the test on Hek293 cells (Oleyl, 5 μM) amounted to 294438 RLU; in the test on Hek293 cells (Oleyl, 10 μM), 191190 RLU; in the test with Hek293 cells (Oleyl, 15 μM) it was 87323 RLU; in the test on Hek293 cells (Palmitoleyl, 5 μM), 46216 RLU; in the test on Hek293 cells (Palmitoleyl, 10 μM) it was 51837 RLU; in the test on Hek293 cells (Palmitoleyl, 15 μM) it was 10351 RLU. Also, the “mean luminescent intensity (RLuc pDNA)” value in the test with Hek293 cells (Petroselinyl, 5 μM) stood at 330418 RLU; in the test with Hek293 cells (Petroselinyl, 10 μM), 145597 RLU; with Hek293 cells (Petroselinyl, 15 μM), 36468 RLU. The “mean fluorescence intensity (EGFP mRNA)” value with A549 cells (Dodecanal, 2.5 μM) is recorded as 622; with A549 cells (Dodecanal, 5 μM), 945; in the test on A549 cells (Dodecanal, 10 μM), 453; with A549 cells (Myristoleyl, 2.5 μM), 1558; in the test with A549 cells (Myristoleyl, 5 μM), 1386; with A549 cells (Myristoleyl, 10 μM), 696. Further, the “mean fluorescence intensity (EGFP mRNA)” value in the test with A549 cells (Oleyl, 2.5 μM) turned out to be 1063; in the test on A549 cells (Oleyl, 5 μM), 1233; in the test with A549 cells (Oleyl, 10 μM), 109; with A549 cells (Palmitoleyl, 2.5 μM) it was 1138; in the test on A549 cells (Palmitoleyl, 10 μM) it was 65; in the test with A549 cells (Petroselinyl, 2.5 μM) it was 2598. In addition, the “mean fluorescence intensity (EGFP mRNA)” value in the test with A549 cells (Petroselinyl, 5 μM) stood at 1675; in the test on A549 cells (Petroselinyl, 10 μM), 1017. Besides, the “percentage of gene editing, GFP fluorescence intensity decrease (% of reduction)” value in test [1] (Myristoleyl, 5 μM, HeLa cells) turned out to be 18%.
